We go through 2 molecules from patent US10254290B2, “Systems and methods for identifying protein stabilizers” (The University of Kansas, priority 2012, dated 2019).

One assay concerns the target CFTR (Homo sapiens, UniProt P13569). In words: BLI chaperonin (GroEL) binding to antibody-captured CFTR, with or without stabilizer (scheme of FIG. 9). To be noted: compared with chaperonin alone and buffer signal. The source says:
In one embodiment, a linker antibody (e.g., anti-mouse antibody) can be attached to the substrate, which is then introduced to a capture antibody (e.g., CFTR antibody), and which is then introduced to a target protein (e.g., cystic fibrosis transmembrane conductance regulator, CFTR). In some instances the capture antibody can be linked directly to the substrate or through a suitable linker. However, the linker antibody can position the capture antibody a suitable distance from the substrate by antibody extension. If no stabilizer is present, a chaperonin (e.g., GroEL) can bind with the target protein to provide a large signal.
As shown, a substrate 202 has an anti-mouse antibody 906 bound thereto. Then, a CFTR antibody 908 is associated with the anti-mouse antibody 906. CFTR 910 is then introduce to and bound with the CFTR antibody 908 before a chaperonin 914 (e.g., GroEL) is introduced to the CFTR/CFTR antibody complex. […] When there is no stabilizer C, the chaperonin 514 binds with the CFTR/CFTR antibody complex to form complex 920 and to produce a large signal. When the stabilizer C is present, there is a decreased binding signal to indicate that the chaperonin cannot bind with the CFTR/CFTR antibody complex. […]

The next assay deals with CFTR-NBD1 (Homo sapiens, UniProt P13569). The experiment in a line: GroEL binding to CFTR-NBD1 bound directly to the substrate. The note with it: CFTR-NBD1 introduced to GTP prior to GroEL. The text has this: Additionally, the CFTR nucleotide binding domain (e.g., CFTR-NBD1) may be bound directly to the substrate, which is then introduced to a GroEL buffer. […] When the CFTR-NBD1 is not introduced to GTP prior to being introduced to GroEL, there is a much higher single. Other substances besides GTP can also be screen to identify inhibitors of forming the CFTR-NBD1/GroEL complex.

For a further assay, the target named is GroEL chaperonin (Escherichia coli, UniProt P0A6F5). The experiment in a line: Binding of the substance to the chaperonin itself.
Assay [1] concerns the target T1, dihydrofolate reductase (DHFR) (Homo sapiens, UniProt P00374).
T1 sequence (P00374 1-187): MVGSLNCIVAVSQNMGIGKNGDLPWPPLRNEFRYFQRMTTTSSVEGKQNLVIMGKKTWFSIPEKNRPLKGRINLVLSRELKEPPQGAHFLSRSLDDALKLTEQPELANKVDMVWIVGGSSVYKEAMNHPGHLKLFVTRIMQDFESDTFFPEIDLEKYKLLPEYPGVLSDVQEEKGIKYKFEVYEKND
In words: Control experiment: biotinylated GroEL chaperonin on a BLI substrate dipped into a DHFR solution. In kind it is binding.
Text: The chaperonin can bind particular target proteins as they transiently expose hydrophobic surfaces from their partially folded forms. The partitioning kinetics can be followed using the BLI high throughput system (Fortebio Octet™) or SPR or other suitable technology. With BLI as an example, the chaperonin can be attached to the BLI tip substrate to dip into a target protein solution. Alternatively, the capture protein and/or target protein can be attached to the BLI tip substrate to dip into a chaperonin solution. The chaperonin will bind with transitioned target proteins (e.g., second conformation), but has no or low binding with folded target proteins (e.g., first conformation). […] Potential protein stabilizers can be screened to see which ones inhibit the chaperonin from binding to the target protein by the stabilizer retaining the protein in the first conformation. In the presence of a potential protein stabilizer, the partitioning kinetic amplitudes show significant declines (e.g., inhibition of partitioning) or even abolish global partitioning, which is scored as a potential lead compound. Once identified, potential protein stabilizer compounds can be further tested with target proteins in secondary screens. […]

CFTR-NBD1, sequence (P13569 423-646 limits assumed): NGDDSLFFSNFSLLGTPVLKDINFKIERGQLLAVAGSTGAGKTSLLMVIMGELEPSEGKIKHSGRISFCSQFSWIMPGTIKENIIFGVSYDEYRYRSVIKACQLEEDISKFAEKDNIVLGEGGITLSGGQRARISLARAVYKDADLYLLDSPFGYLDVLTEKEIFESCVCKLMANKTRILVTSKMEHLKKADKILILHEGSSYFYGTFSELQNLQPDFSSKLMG
CFTR, sequence (P13569 whole entry, species assumed): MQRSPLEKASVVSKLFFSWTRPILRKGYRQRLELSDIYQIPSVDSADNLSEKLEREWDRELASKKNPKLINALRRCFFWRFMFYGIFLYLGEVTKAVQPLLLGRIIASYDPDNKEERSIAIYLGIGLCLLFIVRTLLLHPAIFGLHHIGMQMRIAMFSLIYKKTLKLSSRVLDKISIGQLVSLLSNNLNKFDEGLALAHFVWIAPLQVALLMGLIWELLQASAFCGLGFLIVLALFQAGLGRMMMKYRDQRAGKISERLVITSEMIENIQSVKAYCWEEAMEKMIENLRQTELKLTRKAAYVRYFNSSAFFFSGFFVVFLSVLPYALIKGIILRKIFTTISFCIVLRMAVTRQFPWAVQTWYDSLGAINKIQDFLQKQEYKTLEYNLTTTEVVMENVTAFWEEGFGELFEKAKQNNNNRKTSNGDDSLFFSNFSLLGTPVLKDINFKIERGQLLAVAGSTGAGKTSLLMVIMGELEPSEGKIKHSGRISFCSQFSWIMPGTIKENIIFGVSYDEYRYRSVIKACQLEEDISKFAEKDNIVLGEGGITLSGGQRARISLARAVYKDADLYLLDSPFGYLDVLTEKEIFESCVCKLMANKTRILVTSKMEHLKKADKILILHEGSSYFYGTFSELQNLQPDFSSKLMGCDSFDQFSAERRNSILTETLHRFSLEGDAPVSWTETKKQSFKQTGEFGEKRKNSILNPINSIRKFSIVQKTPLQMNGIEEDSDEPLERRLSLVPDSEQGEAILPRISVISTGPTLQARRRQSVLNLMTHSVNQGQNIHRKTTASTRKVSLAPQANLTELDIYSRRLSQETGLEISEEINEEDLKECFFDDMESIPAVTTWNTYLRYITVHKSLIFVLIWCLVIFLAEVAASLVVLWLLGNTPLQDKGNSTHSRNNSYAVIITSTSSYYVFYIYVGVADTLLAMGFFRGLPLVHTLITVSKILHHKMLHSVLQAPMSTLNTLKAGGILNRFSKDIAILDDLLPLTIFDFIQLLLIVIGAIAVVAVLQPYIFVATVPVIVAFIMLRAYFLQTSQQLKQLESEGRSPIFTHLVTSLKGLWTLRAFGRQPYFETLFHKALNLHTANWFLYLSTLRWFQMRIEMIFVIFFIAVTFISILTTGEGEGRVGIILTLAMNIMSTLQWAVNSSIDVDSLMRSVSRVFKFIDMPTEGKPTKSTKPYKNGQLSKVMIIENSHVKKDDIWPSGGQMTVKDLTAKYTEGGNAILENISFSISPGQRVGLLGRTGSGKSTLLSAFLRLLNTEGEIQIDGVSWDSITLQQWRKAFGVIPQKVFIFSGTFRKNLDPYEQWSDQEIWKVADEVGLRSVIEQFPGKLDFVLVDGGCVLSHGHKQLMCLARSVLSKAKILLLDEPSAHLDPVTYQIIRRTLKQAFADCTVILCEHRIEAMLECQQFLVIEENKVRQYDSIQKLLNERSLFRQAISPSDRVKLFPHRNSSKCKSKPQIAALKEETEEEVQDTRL
GroEL chaperonin, sequence (P0A6F5 2-548): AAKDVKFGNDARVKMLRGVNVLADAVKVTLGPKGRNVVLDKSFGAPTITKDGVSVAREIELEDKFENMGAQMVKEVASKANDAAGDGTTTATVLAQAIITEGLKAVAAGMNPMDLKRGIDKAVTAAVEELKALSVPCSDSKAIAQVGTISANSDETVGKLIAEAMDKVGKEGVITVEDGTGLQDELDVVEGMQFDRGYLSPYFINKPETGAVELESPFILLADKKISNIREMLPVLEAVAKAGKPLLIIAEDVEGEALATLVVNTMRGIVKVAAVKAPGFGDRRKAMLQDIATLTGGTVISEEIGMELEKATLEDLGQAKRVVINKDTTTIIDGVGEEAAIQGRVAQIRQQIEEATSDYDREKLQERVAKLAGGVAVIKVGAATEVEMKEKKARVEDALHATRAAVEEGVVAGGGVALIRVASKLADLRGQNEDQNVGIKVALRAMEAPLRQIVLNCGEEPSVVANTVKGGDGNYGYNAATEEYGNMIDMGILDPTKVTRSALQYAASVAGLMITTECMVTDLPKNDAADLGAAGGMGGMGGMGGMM

On to `Nc1nc2c(ncn2[C@@H]2O[C@H](COP(=O)(O)OP(=O)(O)OP(=O)(O)O)[C@@H](O)[C@H]2O)c(=O)[nH]1` [GTP, guanosine triphosphate], for which, on CFTR, the “chaperonin binding signal (stabilization of CFTR)” value was “decreased the chaperonin binding and decreased the signal”. In addition, on CFTR-NBD1, the “signal of GroEL binding to CFTR-NBD1” value is reported as “no signal or a low single”. On GroEL chaperonin, the “binding to the GroEL chaperonin” value is “does not bind”.
In the case of `NC(=O)C1=CN([C@@H]2O[C@H](COP(=O)(O)OP(=O)(O)OC[C@H]3O[C@@H](n4cnc5c(N)ncnc54)[C@H](OP(=O)(O)O)[C@@H]3O)[C@@H](O)[C@H]2O)C=CC1` [NADPH], the “signal of GroEL-DHFR interaction” value in assay [1] (BLI, NADPH e.g. 10 mM) is listed as “decrease the signal”. Also, the “signal of GroEL-DHFR interaction, combination” value in assay [1] (combination of GroEL and DHFR and 10 mM NADPH) was “further reduce the signal”.
